Data: the supplement of paper PMC11451515

System: SEM cells
Assay: cell viability relative to DMSO control; higher = less cytotoxic
Conditions: 48 h
In short: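 NOMO1, SEM and P12-Ichikawa leukemia cells spent at least four passages adapting to each medium before use. They were seeded at 500 cells/well (NOMO1, SEM) or 1000 cells/well (P12-Ichikawa) in 5 μl in 1536-well plates and pin-dosed with library compounds in DMSO at 11 threefold steps from 47 μM down to 0.79 nM. After 48 h at 37°C, CellTiter-Glo One luminescence was read. Viability is reported as a percentage of the DMSO wells on each plate, with cell-free wells as background.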

[1] = HPLM + 10% dialyzed FBS, 0.000781 µM
[2] = HPLM + 10% dialyzed FBS, 0.00234 µM
[3] = HPLM + 10% dialyzed FBS, 0.00702 µM
[4] = HPLM + 10% dialyzed FBS, 0.0211 µM
[5] = HPLM + 10% dialyzed FBS, 0.0632 µM
[6] = HPLM + 10% dialyzed FBS, 0.19 µM
[7] = HPLM + 10% dialyzed FBS, 0.569 µM
[8] = HPLM + 10% dialyzed FBS, 1.71 µM
[9] = HPLM + 10% dialyzed FBS, 5.12 µM
[10] = HPLM + 10% dialyzed FBS, 15.4 µM
[11] = HPLM + 10% dialyzed FBS, 46.1 µM
[12] = RPMI 5 mM glucose + 10% FBS, 0.000781 µM
[13] = RPMI 5 mM glucose + 10% FBS, 0.00234 µM
[14] = RPMI 5 mM glucose + 10% FBS, 0.00702 µM
[15] = RPMI 5 mM glucose + 10% FBS, 0.0211 µM
[16] = RPMI 5 mM glucose + 10% FBS, 0.0632 µM
[17] = RPMI 5 mM glucose + 10% FBS, 0.19 µM
[18] = RPMI 5 mM glucose + 10% FBS, 0.569 µM
[19] = RPMI 5 mM glucose + 10% FBS, 1.71 µM
[20] = RPMI 5 mM glucose + 10% FBS, 5.12 µM
[21] = RPMI 5 mM glucose + 10% FBS, 15.4 µM
[22] = RPMI 5 mM glucose + 10% FBS, 46.1 µM
[23] = RPMI 5 mM glucose + 10% dialyzed FBS, 0.000781 µM
[24] = RPMI 5 mM glucose + 10% dialyzed FBS, 0.00234 µM
[25] = RPMI 5 mM glucose + 10% dialyzed FBS, 0.00702 µM
[26] = RPMI 5 mM glucose + 10% dialyzed FBS, 0.0211 µM
[27] = RPMI 5 mM glucose + 10% dialyzed FBS, 0.0632 µM
[28] = RPMI 5 mM glucose + 10% dialyzed FBS, 0.19 µM
[29] = RPMI 5 mM glucose + 10% dialyzed FBS, 0.569 µM
[30] = RPMI 5 mM glucose + 10% dialyzed FBS, 1.71 µM
[31] = RPMI 5 mM glucose + 10% dialyzed FBS, 5.12 µM
[32] = RPMI 5 mM glucose + 10% dialyzed FBS, 15.4 µM
[33] = RPMI 5 mM glucose + 10% dialyzed FBS, 46.1 µM

## C=C[C@H]1CN2CCC1C[C@@H]2C(O)c1ccnc2ccc(OC)cc12 (stereo partly specified)
[1]
  cell viability: 118%
[2]
  cell viability: 146%
[3]
  cell viability: 116%
[4]
  cell viability: 22.4%
[5]
  cell viability: 131%
[6]
  cell viability: 115%
[7]
  cell viability: 121%
[8]
  cell viability: 111%
[9]
  cell viability: 126%
[10]
  cell viability: 113%
[11]
  cell viability: 111%
[12]
  cell viability: 67.5%
[13]
  cell viability: 77.6%
[14]
  cell viability: 104%
[15]
  cell viability: 11.3%
[16]
  cell viability: 99.7%
[17]
  cell viability: 96.1%
[18]
  cell viability: 82%
[19]
  cell viability: 77%
[20]
  cell viability: 94.6%
[21]
  cell viability: 84.6%
[22]
  cell viability: 63%
[23]
  cell viability: 121%
[24]
  cell viability: 123%
[25]
  cell viability: 138%
[26]
  cell viability: 23.6%
[27]
  cell viability: 129%
[28]
  cell viability: 121%
[29]
  cell viability: 112%
[30]
  cell viability: 127%
[31]
  cell viability: 131%
[32]
  cell viability: 132%
[33]
  cell viability: 97.5%

## COc1ccc(C(=O)CC2(O)C(=O)Nc3c(Cl)ccc(Cl)c32)cc1 (stereo unspecified)
[1]
  cell viability: 87%
[2]
  cell viability: 108%
[3]
  cell viability: 111%
[4]
  cell viability: 110%
[5]
  cell viability: 104%
[6]
  cell viability: 109%
[7]
  cell viability: 113%
[8]
  cell viability: 107%
[9]
  cell viability: 45.9%
[10]
  cell viability: 20.5%
[11]
  cell viability: 16.2%
[12]
  cell viability: 75.7%
[13]
  cell viability: 98.4%
[14]
  cell viability: 99.7%
[15]
  cell viability: 79.3%
[16]
  cell viability: 94.1%
[17]
  cell viability: 85.1%
[18]
  cell viability: 81.2%
[19]
  cell viability: 65.7%
[20]
  cell viability: 41.4%
[21]
  cell viability: 10.7%
[22]
  cell viability: 9.15%
[23]
  cell viability: 94.8%
[24]
  cell viability: 101%
[25]
  cell viability: 107%
[26]
  cell viability: 88.9%
[27]
  cell viability: 104%
[28]
  cell viability: 107%
[29]
  cell viability: 107%
[30]
  cell viability: 90.3%
[31]
  cell viability: 47.3%
[32]
  cell viability: 20.4%
[33]
  cell viability: 14.9%

## O=C(c1ccccc1)c1ccc2n1CCC2C(=O)O (stereo unspecified)
[1]
  cell viability: 117%
[2]
  cell viability: 118%
[3]
  cell viability: 104%
[4]
  cell viability: 107%
[5]
  cell viability: 114%
[6]
  cell viability: 113%
[7]
  cell viability: 112%
[8]
  cell viability: 113%
[9]
  cell viability: 81.9%
[10]
  cell viability: 67.8%
[11]
  cell viability: 77.6%
[23]
  cell viability: 124%
[24]
  cell viability: 121%
[25]
  cell viability: 129%
[26]
  cell viability: 134%
[27]
  cell viability: 125%
[28]
  cell viability: 121%
[29]
  cell viability: 118%
[30]
  cell viability: 114%
[31]
  cell viability: 90.3%
[32]
  cell viability: 59.4%
[33]
  cell viability: 72.2%

## CC(C(=O)O)c1ccc2c(c1)CC(=O)c1ccccc1S2 (stereo unspecified)
[1]
  cell viability: 99.9%
[2]
  cell viability: 117%
[3]
  cell viability: 109%
[4]
  cell viability: 115%
[5]
  cell viability: 94.3%
[6]
  cell viability: 112%
[7]
  cell viability: 95.4%
[8]
  cell viability: 114%
[9]
  cell viability: 126%
[10]
  cell viability: 116%
[11]
  cell viability: 115%
[12]
  cell viability: 111%
[13]
  cell viability: 109%
[14]
  cell viability: 116%
[15]
  cell viability: 104%
[16]
  cell viability: 103%
[17]
  cell viability: 105%
[18]
  cell viability: 117%
[19]
  cell viability: 121%
[20]
  cell viability: 99.4%
[21]
  cell viability: 107%
[22]
  cell viability: 96.5%
[23]
  cell viability: 122%
[24]
  cell viability: 115%
[25]
  cell viability: 129%
[26]
  cell viability: 133%
[27]
  cell viability: 124%
[28]
  cell viability: 108%
[29]
  cell viability: 116%
[30]
  cell viability: 117%
[31]
  cell viability: 110%
[32]
  cell viability: 129%
[33]
  cell viability: 118%
